{
  "source": "patent US8748415B2",
  "about": "(priority 2011, dated 2014)",
  "data": [
    {"tested_on": "recombinant NL4-3 virus (Renilla luciferase in nef, Gag P373S)", "test": "HIV cell culture assay (luciferase activity in MT-2 cells infected with NLRluc recombinant virus)", "type": "cell-based", "settings": "NL43, MT-2 cells infected 4-5 days with NLRluc recombinant virus, class symbol", "in_short": "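MT-2 cells in RPMI/10% FBS were infected with recombinant NL4-3 (NLRluc), produced by 293T transfection and titered in MT-2 by luciferase. Serial inhibitor dilutions were present throughout a 4–5 day infection. Antiviral activity was quantified as Renilla luciferase signal via a modified Dual Luciferase read.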", "units": {"EC50": "nM"}, "values": [
      {"smiles": "C=C(C)[C@@H]1CC[C@]2(CNCCC(=O)N3CCCCC3)CC[C@]3(C)[C@H](CC[C@@H]4[C@@]5(C)CC=C(c6ccc(C(=O)O)cc6)C(C)(C)[C@@H]5CC[C@]43C)[C@@H]12", "note": "[Example 96, 4-((1R,3aS,5aR,5bR,7aR,11aS,11bR,13aR,13bR)-5a,5b,8,8,11a-pentamethyl-3a-((3-oxo-3-(piperidin-1-yl)propylamino)methyl)-1-(prop-1-en-2-yl)-2,3,3a,4,5,5a,5b,6,7,7a,8,11,11a,11b,12,13,13a,13b-octadecahydro-1H-cyclopenta[a]chrysen-9-yl)benzoic acid]", "EC50": "< 100"},
      {"smiles": "C=C(C)[C@@H]1CC[C@]2(CNCCC(=O)N3CCN(S(=O)(=O)N(C)C)CC3)CC[C@]3(C)[C@H](CC[C@@H]4[C@@]5(C)CC=C(c6ccc(C(=O)O)cc6)C(C)(C)[C@@H]5CC[C@]43C)[C@@H]12", "note": "[Example 97, 4-((1R,3aS,5aR,5bR,7aR,11aS,11bR,13aR,13bR)-3a-((3-(4-(N,N-dimethylsulfamoyl)piperazin-1-yl)-3-oxopropylamino)methyl)-5a,5b,8,8,11a-pentamethyl-1-(prop-1-en-2-yl)-2,3,3a,4,5,5a,5b,6,7,7a,8,11,11a,11b,12,13,13a,13b-octadecahydro-1H-cyclopenta[a]chrysen-9-yl)benzoic acid]", "EC50": "< 100"},
      {"smiles": "C=C(C)[C@@H]1CC[C@]2(CNCCC(=O)N3CCC(C(=O)OCC)CC3)CC[C@]3(C)[C@H](CC[C@@H]4[C@@]5(C)CC=C(c6ccc(C(=O)O)cc6)C(C)(C)[C@@H]5CC[C@]43C)[C@@H]12", "note": "[Example 98, 4-((1R,3aS,5aR,5bR,7aR,11aS,11bR,13aR,13bR)-3a-((3-(4-(ethoxycarbonyl)piperidin-1-yl)-3-oxopropylamino)methyl)-5a,5b,8,8,11a-pentamethyl-1-(prop-1-en-2-yl)-2,3,3a,4,5,5a,5b,6,7,7a,8,11,11a,11b,12,13,13a,13b-octadecahydro-1H-cyclopenta[a]chrysen-9-yl)benzoic acid]", "EC50": "< 100"},
      {"smiles": "C=C(C)[C@@H]1CC[C@]2(CNCCC(=O)NCCC(=O)N(C)C)CC[C@]3(C)[C@H](CC[C@@H]4[C@@]5(C)CC=C(c6ccc(C(=O)O)cc6)C(C)(C)[C@@H]5CC[C@]43C)[C@@H]12", "note": "[Example 99, 4-((1R,3aS,5aR,5bR,7aR,11aS,11bR,13aR,13bR)-3a-((3-(3-(dimethylamino)-3-oxopropylamino)-3-oxopropylamino)methyl)-5a,5b,8,8,11a-pentamethyl-1-(prop-1-en-2-yl)-2,3,3a,4,5,5a,5b,6,7,7a,8,11,11a,11b,12,13,13a,13b-octadecahydro-1H-cyclopenta[a]chrysen-9-yl)benzoic acid]", "EC50": "< 100"},
      {"smiles": "C=C(C)[C@@H]1CC[C@]2(CNCCC(=O)N3CCC[C@@H]3C(=O)O)CC[C@]3(C)[C@H](CC[C@@H]4[C@@]5(C)CC=C(c6ccc(C(=O)O)cc6)C(C)(C)[C@@H]5CC[C@]43C)[C@@H]12", "note": "[Example 100, (R)-1-(3-(((1R,3aS,5aR,5bR,7aR,11aS,11bR,13aR,13bR)-9-(4-carboxyphenyl)-5a,5b,8,8,11a-pentamethyl-1-(prop-1-en-2-yl)-2,3,3a,4,5,5a,5b,6,7,7a,8,11,11a,11b,12,13,13a,13b-octadecahydro-1H-cyclopenta[a]chrysen-3a-yl)methylamino)propanoyl)pyrrolidine-2-carboxylic acid]", "EC50": "< 100"},
      {"smiles": "C=C(C)[C@@H]1CC[C@]2(CNCCC(=O)N3CCC[C@H]3C(=O)OC)CC[C@]3(C)[C@H](CC[C@@H]4[C@@]5(C)CC=C(c6ccc(C(=O)O)cc6)C(C)(C)[C@@H]5CC[C@]43C)[C@@H]12", "note": "[Example 101, 4-((1R,3aS,5aR,5bR,7aR,11aS,11bR,13aR,13bR)-3a-((3-((S)-2-(methoxycarbonyl)pyrrolidin-1-yl)-3-oxopropylamino)methyl)-5a,5b,8,8,11a-pentamethyl-1-(prop-1-en-2-yl)-2,3,3a,4,5,5a,5b,6,7,7a,8,11,11a,11b,12,13,13a,13b-octadecahydro-1H-cyclopenta[a]chrysen-9-yl)benzoic acid]", "EC50": "< 100"},
      {"smiles": "C=C(C)[C@@H]1CC[C@]2(CNCCC(=O)N3CCC[C@H]3C(=O)O)CC[C@]3(C)[C@H](CC[C@@H]4[C@@]5(C)CC=C(c6ccc(C(=O)O)cc6)C(C)(C)[C@@H]5CC[C@]43C)[C@@H]12", "note": "[Example 102, (S)-1-(3-(((1R,3aS,5aR,5bR,7aR,11aS,11bR,13aR,13bR)-9-(4-carboxyphenyl)-5a,5b,8,8,11a-pentamethyl-1-(prop-1-en-2-yl)-2,3,3a,4,5,5a,5b,6,7,7a,8,11,11a,11b,12,13,13a,13b-octadecahydro-1H-cyclopenta[a]chrysen-3a-yl)methylamino)propanoyl)pyrrolidine-2-carboxylic acid]", "EC50": "< 100"},
      {"smiles": "C=C(C)[C@@H]1CC[C@]2(CNCCC(=O)N3CCC(F)(F)C3)CC[C@]3(C)[C@H](CC[C@@H]4[C@@]5(C)CC=C(c6ccc(C(=O)O)cc6)C(C)(C)[C@@H]5CC[C@]43C)[C@@H]12", "note": "[Example 103, 4-((1R,3aS,5aR,5bR,7aR,11aS,11bR,13aR,13bR)-3a-((3-(3,3-difluoropyrrolidin-1-yl)-3-oxopropylamino)methyl)-5a,5b,8,8,11a-pentamethyl-1-(prop-1-en-2-yl)-2,3,3a,4,5,5a,5b,6,7,7a,8,11,11a,11b,12,13,13a,13b-octadecahydro-1H-cyclopenta[a]chrysen-9-yl)benzoic acid]", "EC50": "< 100"},
      {"smiles": "C=C(C)[C@@H]1CC[C@]2(CNCCC(=O)N3CCC(C(=O)O)CC3)CC[C@]3(C)[C@H](CC[C@@H]4[C@@]5(C)CC=C(c6ccc(C(=O)O)cc6)C(C)(C)[C@@H]5CC[C@]43C)[C@@H]12", "note": "[Example 104, 1-(3-(((1R,3aS,5aR,5bR,7aR,11aS,11bR,13aR,13bR)-9-(4-carboxyphenyl)-5a,5b,8,8,11a-pentamethyl-1-(prop-1-en-2-yl)-2,3,3a,4,5,5a,5b,6,7,7a,8,11,11a,11b,12,13,13a,13b-octadecahydro-1H-cyclopenta[a]chrysen-3a-yl)methylamino)propanoyl)piperidine-4-carboxylic acid]", "EC50": "< 100"},
      {"smiles": "C=C(C)[C@@H]1CC[C@]2(CNCCC(=O)N3CCN(C)CC3)CC[C@]3(C)[C@H](CC[C@@H]4[C@@]5(C)CC=C(c6ccc(C(=O)O)cc6)C(C)(C)[C@@H]5CC[C@]43C)[C@@H]12", "note": "[Example 105, 4-((1R,3aS,5aR,5bR,7aR,11aS,11bR,13aR,13bR)-5a,5b,8,8,11a-pentamethyl-3a-((3-(4-methylpiperazin-1-yl)-3-oxopropylamino)methyl)-1-(prop-1-en-2-yl)-2,3,3a,4,5,5a,5b,6,7,7a,8,11,11a,11b,12,13,13a,13b-octadecahydro-1H-cyclopenta[a]chrysen-9-yl)benzoic acid]", "EC50": "< 100"},
      {"smiles": "C=C(C)[C@@H]1CC[C@]2(CNCCC(=O)N3CC(F)(F)C(F)(F)C3)CC[C@]3(C)[C@H](CC[C@@H]4[C@@]5(C)CC=C(c6ccc(C(=O)O)cc6)C(C)(C)[C@@H]5CC[C@]43C)[C@@H]12", "note": "[Example 106, 4-((1R,3aS,5aR,5bR,7aR,11aS,11bR,13aR,13bR)-5a,5b,8,8,11a-pentamethyl-3a-((3-oxo-3-(3,3,4,4-tetrafluoropyrrolidin-1-yl)propylamino)methyl)-1-(prop-1-en-2-yl)-2,3,3a,4,5,5a,5b,6,7,7a,8,11,11a,11b,12,13,13a,13b-octadecahydro-1H-cyclopenta[a]chrysen-9-yl)benzoic acid]", "EC50": "< 100"}
    ]}
  ]
}
